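Growth conditions: 96-well plates. Treatment: test compound, 48 hours, 5 concentrations. Analysis: linear interpolation between bracketing concentrations; unreached endpoints set to highest concentration. Here, GI50 denotes the concentration required for 50% inhibition of growth.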 Activity calls are given as the source filed them. Rule as the data show it: active = GI50 up to about 1.1 µM and inactive = higher.
Experiments:
Test in all cases: NCI tumour cell line growth inhibition, 48 h
SK-MEL-28 = test system: SK-MEL-28
COLO 205 = test system: COLO 205
CAKI-1 = test system: CAKI-1
SW-620 = test system: SW-620
SNB-75 = test system: SNB-75
LOX IMVI = test system: LOX IMVI
HCT-15 = test system: HCT-15
UACC-62 = test system: UACC-62
MOLT-4 = test system: MOLT-4
OVCAR-5 = test system: OVCAR-5
OVCAR-3 = test system: OVCAR-3
Malme-3M = test system: Malme-3M
OVCAR-8 = test system: OVCAR-8
SK-MEL-2 = test system: SK-MEL-2
NCI-H522 = test system: NCI-H522
OVCAR-4 = test system: OVCAR-4
EKVX = test system: EKVX
ACHN = test system: ACHN
HOP-62 = test system: HOP-62

SMILES | GI50 (SK-MEL-28) | GI50 (COLO 205) | GI50 (CAKI-1) | GI50 (SW-620) | GI50 (SNB-75) | GI50 (LOX IMVI) | GI50 (HCT-15) | GI50 (UACC-62) | GI50 (MOLT-4) | GI50 (OVCAR-5) | GI50 (OVCAR-3) | GI50 (Malme-3M) | GI50 (OVCAR-8) | GI50 (SK-MEL-2) | GI50 (NCI-H522) | GI50 (OVCAR-4) | GI50 (EKVX) | GI50 (ACHN) | GI50 (HOP-62)
C=C1CC2(CC(c3ccccc3Cl)OC(c3ccccc3Cl)C2)OC1=O (centres undefined) | 1.87 µM (inactive) | 2.31 µM (inactive) | 2 µM (inactive) | 1.98 µM (inactive) | 3.17 µM (inactive) | 1.38 µM (inactive) | 2.56 µM | 1.94 µM (inactive) | 2.4 µM (inactive) | 8.73 µM (inactive) | 2.91 µM (inactive) | 3.57 µM (inactive) | 2.11 µM (inactive) | 3.43 µM (inactive) | 1.72 µM (inactive) | 3.9 µM (inactive) | 8.34 µM (inactive) | 4.51 µM (inactive) | 8.05 µM (inactive)
COc1cc(OC)cc(C(=O)NC2=C(Cl)C(=O)c3ccccc3C2=O)c1 | 2.96 µM (inactive) | 2.52 µM (inactive) | 5.4 µM (inactive) | 1.01 µM (active) | 2.67 µM (inactive) | 1.99 µM (inactive) | 0.94 µM | 0.361 µM (active) | 1.67 µM (inactive) | 4.92 µM (inactive) | 1.88 µM (inactive) | 1.74 µM (inactive) | 3.1 µM (inactive) | 1.65 µM (inactive) | 0.728 µM (active) | 1.79 µM (inactive) | 9.75 µM (inactive) | 0.78 µM (active) | 12.8 µM (inactive)
COc1cccc2c1C(=O)c1ccc3cc(CO)cc(O)c3c1C2=O | 1.86 µM (inactive) | 1.53 µM (inactive) | 2.72 µM (inactive) | 0.19 µM (active) | 4.29 µM (inactive) | 1.8 µM (inactive) | 0.321 µM | 0.279 µM (active) | 0.405 µM (active) | 2.09 µM (inactive) | 0.169 µM (active) | 0.046 µM (active) | 0.231 µM (active) | 0.798 µM (active) | 0.865 µM (active) | 0.652 µM (active) | 1.87 µM (inactive) | 0.509 µM (active) | 2.09 µM (inactive)
Cc1ccc(S(=O)(=O)[C@@H](Cl)[C@H]2N=C(Cl)NN=C2c2ccccc2)cc1 | 19.4 µM (inactive) | 26.9 µM (inactive) | 41.9 µM (inactive) | 17.2 µM (inactive) | 27.9 µM (inactive) | 19.1 µM (inactive) | 22.2 µM | 15.1 µM (inactive) | 20.6 µM (inactive) | 85.9 µM (inactive) | 14.7 µM (inactive) | 20.7 µM (inactive) | 21.1 µM (inactive) | 14.8 µM (inactive) | 15.9 µM (inactive) | 13.9 µM (inactive) | 37.1 µM (inactive) | 33.7 µM (inactive) | 20 µM (inactive)
O=P(O)(O)CN1CCNCCN(CP(=O)(O)O)CC1 | > 100 µM (inactive) | 3.18 µM (inactive) | > 90.6 µM (inactive) | 19.3 µM (inactive) | > 54.5 µM (inactive) | 25.9 µM (inactive) | 8.89 µM | 38.8 µM (inactive) | 12.5 µM (inactive) | > 42.3 µM (inactive) | > 62.7 µM (inactive) | > 37.3 µM (inactive) | 28.4 µM (inactive) | 46 µM (inactive) | 19.9 µM (inactive) | > 100 µM (inactive) | > 80.2 µM (inactive) | > 100 µM (inactive) | > 100 µM (inactive)
Cc1n2nc(N)sc2n[n+]1CC(=O)c1ccccc1 | > 100 µM (inactive) | > 100 µM (inactive) | > 100 µM (inactive) | > 100 µM (inactive) | > 100 µM (inactive) | > 100 µM (inactive) | > 100 µM | 14 µM (inactive) | > 100 µM (inactive) | > 100 µM (inactive) | > 100 µM (inactive) | > 100 µM (inactive) | > 100 µM (inactive) | > 100 µM (inactive) | > 100 µM (inactive) | > 100 µM (inactive) | > 100 µM (inactive) | > 100 µM (inactive) | > 100 µM (inactive)
